Here are results for 4 compounds from ChEMBL document CHEMBL1926531, “Butamben derivatives enhance BMP-2-stimulated commitment of C2C12 cells into osteoblasts with induction of voltage-gated potassium channel expression” (Bioorg Med Chem Lett, 2011).

Test [1] addresses T1, Bone morphogenetic protein 2 (Homo sapiens) (UniProt P12643).
T1 sequence (whole entry): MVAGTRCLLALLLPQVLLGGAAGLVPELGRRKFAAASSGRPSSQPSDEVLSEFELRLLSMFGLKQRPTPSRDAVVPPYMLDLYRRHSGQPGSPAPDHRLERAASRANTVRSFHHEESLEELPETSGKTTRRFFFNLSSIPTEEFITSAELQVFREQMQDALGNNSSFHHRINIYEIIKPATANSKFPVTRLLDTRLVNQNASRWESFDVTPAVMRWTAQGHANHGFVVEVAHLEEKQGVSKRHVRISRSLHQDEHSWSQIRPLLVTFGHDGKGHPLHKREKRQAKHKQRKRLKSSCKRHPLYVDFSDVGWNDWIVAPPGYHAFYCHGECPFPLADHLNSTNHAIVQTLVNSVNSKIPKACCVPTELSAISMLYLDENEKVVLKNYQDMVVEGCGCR
Put plainly: Increase in human recombinant BMP2-mediated osteoblastogenesis in mouse C2C12 cells assessed as induction of alkaline phosphatase activity after 6 days. Type of test: cell-based.

For test [2], the target named is T1, Bone morphogenetic protein 2 (Homo sapiens). Put plainly: Increase in BMP2-mediated osteoblastogenesis in mouse C2C12 cells assessed as increase in BMP4 mRNA level at 10 uM by SYBR-based RT-PCR. Type of test: cell-based.
The target is the same in test [3]. Put plainly: Increase in BMP2-mediated osteoblastogenesis in mouse C2C12 cells assessed as increase in BMP6 mRNA level at 10 uM by SYBR-based RT-PCR. Type of test: cell-based.
For test [4] the target is unchanged. Put plainly: Increase in BMP2-mediated osteoblastogenesis in mouse C2C12 cells assessed as increase in BMP7 mRNA level at 10 uM by SYBR-based RT-PCR. The test is classed as cell-based.
Test [5] shares this target. The test is described as follows: Increase in BMP2-mediated osteoblastogenesis in mouse C2C12 cells assessed as increase in BMP9 mRNA level at 10 uM by SYBR-based RT-PCR. Type of test: cell-based.
The target is the same in test [6]. The test is described as follows: Increase in BMP2-mediated osteoblastogenesis in mouse C2C12 cells assessed as increase in OCN mRNA level at 10 uM by SYBR-based RT-PCR. The test is classed as cell-based.
For test [7] the target is unchanged. The test is described as follows: Increase in BMP2-mediated osteoblastogenesis assessed as increase in BMP2 protein level in mouse C2C12 cells at 10 uM by Western blot analysis. Type of test: cell-based.
Test [8] has the same target. The test is described as follows: Increase in BMP2-mediated osteoblastogenesis assessed as increase in BMP7 protein level in mouse C2C12 cells at 10 uM by Western blot analysis. Type of test: cell-based. In general terms: Immunoblotting shows a protein as a band on a membrane.
The test system of test [9] is C2C12. The test is described as follows: Induction of alkaline phosphatase activity in mouse C2C12 cells. The test is classed as cell-based.
Test [10] has as its target T1, Bone morphogenetic protein 2 (Homo sapiens). Put plainly: Increase in human recombinant BMP2-mediated osteoblastogenesis assessed as increase in alkaline phosphatase mRNA expression in mouse C2C12 at 10 uM co-treated with BMP2 antagonist noggin on day 3 measured after 6 days by SYBR-based RT-PCR. The test is classed as functional.
The target is the same in test [11]. The test is described as follows: Increase in human recombinant BMP2-mediated osteoblastogenesis assessed as increase in alkaline phosphatase activity in mouse C2C12 at 10 uM co-treated with BMP2 antagonist noggin on day 3 measured after 6 days. The test is classed as functional.
Test [12] shares this target. The test is described as follows: Increase in human recombinant BMP2-mediated osteoblastogenesis assessed as increase in alkaline phosphatase mRNA expression in mouse C2C12 cells at 10 uM treated with BMP2 antagonist noggin on day 4 post compound challenge measured after 6 days by SYBR-based RT-PCR. Type of test: functional, cell-based.
Test [13] has the same target. The test is described as follows: Increase in human recombinant BMP2-mediated osteoblastogenesis assessed as increase in alkaline phosphatase activity in mouse C2C12 cells at 10 uM treated with BMP2 antagonist on day 4 post compound challenge measured after 6 days. Type of test: functional, cell-based.
The target is the same in test [14]. Put plainly: Increase in BMP2-mediated osteoblastogenesis assessed as increase in nuclear translocation of Smad at 10 uM by Western blot analysis.
Test [15] shares this target. Put plainly: Increase in BMP2-mediated osteoblastogenesis assessed as increase in phosphorylation of Smad at 10 uM by Western blot analysis.
Test [16] has the same target. The test is described as follows: Increase in BMP2-mediated osteoblastogenesis assessed as increase in phosphorylated of Smad level in nucleus at 10 uM after 6 hrs by Western blot analysis.
Test [17] shares this target. The test is described as follows: Increase in BMP2-mediated osteoblastogenesis assessed as increase in Kv1.1 mRNA expression at 10 uM by RT-PCR analysis.
Test [18] shares this target. The test is described as follows: Increase in BMP2-mediated osteoblastogenesis assessed as increase in Kv1.5 mRNA expression at 10 uM after 3 days by RT-PCR analysis.
For test [19] the target is unchanged. Put plainly: Increase in BMP2-mediated osteoblastogenesis assessed as increase in Kv4.2 mRNA expression at 10 uM after 6 hrs after 3 days by RT-PCR analysis.
Test [20] has the same target. The test is described as follows: Increase in BMP2-mediated osteoblastogenesis assessed as increase in Kv4.3 mRNA expression at 10 uM after 6 hrs after 3 days by RT-PCR analysis.

Activity calls are given as the source filed them. The rule behind the calls is not given here.

Consider `CCCCOC(=O)c1ccc(NC(C)=O)cc1`, for which the Activity result in [1] is “Dose-dependent effect”. Moreover, the outcome in [2], in test [3], in test [4], in test [5], in test [6] and in test [7] was Active. Moreover, the outcome in test [8], in test [14], in test [15], in test [16], in test [17] and in test [18] was Active. Further, the outcome in [19] and in test [20] was Active. For the same compound, the result in test [9], in test [10], in test [11], in [12] and in [13] was inactive.
In the case of `CCCCOC(=O)c1ccc(N)cc1`, the Activity entry in test [1] is “Dose-dependent effect”. The outcome in [2], in test [3], in test [4], in [5] and in test [6] was Active. Moreover, the result in test [9] was inactive.
On to `CC(C)OC(=O)c1ccc(N)cc1`, for which the Activity result in test [1] is “Dose-dependent effect”. In addition, the result in test [2], in [3], in test [4], in [5] and in [6] was Active. Further, in [9], the outcome was inactive.
`COC(=O)c1ccc(N)cc1`: the Activity result in test [1] was “Dose-dependent effect”. Further, the outcome in [2], in test [3], in test [4], in test [5] and in test [6] was Active. Besides, in test [9], the outcome was inactive.
